This note sets out measurements from publication PMC5688144, “Assay interference and off-target liabilities of reported histone acetyltransferase inhibitors” (Nature Communications, 2017).

A short description of data set [1]: UPLC-MS gross compound stability in assay buffer. As to conditions: 25 mM sodium phosphate, pH 7.0, 30 °C, no GSH or CoA. How it is done:
Select compounds were incubated up to 24 h for additional stability analyses. Chromatograms and mass spectra were qualitatively analyzed for the formation of new peaks and/or loss of parent peaks.

Data set [2] can be described thus: Fluorescence quenching counter-screen. It is filed as physicochemical. As to conditions: 10 μM fluorophore; 32 nM-100 μM compound. How it is done: Selected test compounds were assessed for fluorescence quenching using adaptions of previously published procedures[9],[24]. Briefly, test compounds and individual fluorophore standards were incubated together. The fluorescence intensity of these mixtures was compared to the fluorescence intensity of the same fluorophore standards minus test compounds. Each microplate contained positive control columns (DMSO plus fixed concentration of a single fluorophore), negative control columns (DMSO), and experimental wells (test compounds plus fixed concentration of a single fluorophore). […] Final concentration of DMSO was constant at 2.0% (v/v). […] All measurements were performed in ALARM NMR buffer (25 mM sodium phosphate, pH 7.0) at 25 °C. Aliquots of 20 μL buffer were dispensed into microplate wells via ThermoFisher Multidrop dispenser. Microplates were shaken for 1 min on a plate shaker, centrifuged briefly for 1 min at 1000×g, then allowed to incubate at RT for 10 min before measuring fluorescence intensity on a SpectraMax M3 plate reader under reduced lighting. Instrument settings for each fluorophore were unchanged from the aforementioned autofluorescence studies.
(In general: A counterscreen serves to expose hits that act by an unwanted route or on another target.)

Another data set addresses T1, AmpC β-lactamase (Escherichia coli, UniProt P00811).
T1 construct: Recombinant E. coli AmpC (amino acids 20–377); purchased MyBioSource.com
Put plainly: biochemical. More on the design: species or system E. coli. As to conditions: 10 μM compound; for AmpC aggregation counter-screen: ± 0.01% Triton X-100. The gist of the method: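 Compounds at 10 μM (2% DMSO, triplicate) were preincubated 5 min at RT with ~5 nM E. coli AmpC (residues 20–377) in 25 mM sodium phosphate pH 7.0, with or without 0.01% Triton X-100, then given 100 μM nitrocefin. Activity was normalized to DMSO; aggregation was called on a detergent-dependent change >30% (adjusted P <0.05).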

Data set [3] is described as follows: Autofluorescence counter-screen. It is filed as physicochemical. As to conditions: autofluorescence at eight fluorophore settings; 32 nM-100 μM compound. How it is done: Selected test compounds were assessed for autofluorescence using an adaption of published procedures. […] Final concentration of DMSO was constant at 1.0% (v/v). Compounds and fluorophore standards were transferred as 10 mM DMSO stock solutions to 384-well black polystyrene microplates via Echo 550 dispenser. The plate arrangement was purposefully designed to minimize optical crosstalk by fluorophore standards. All measurements were performed in ALARM NMR buffer (25 mM sodium phosphate, pH 7.0) at 25 °C. Aliquots of 20 μL buffer were dispensed into microplate wells via ThermoFisher Multidrop dispenser. Compounds were shaken for 1 min on a plate shaker, centrifuged briefly for 1 min at 1000×g, then allowed to incubate at RT in buffer for 10 min before measuring fluorescence intensity on a SpectraMax M3 plate reader under reduced lighting. […] Bandwidth filters were set to default mode. Fluorescence intensity was measured for each test compound using each of the eight fluorophore standard settings. Fluorophores present on each plate were then used to construct normalized fluorescence dose-responses (“fluorophore-equivalent concentrations”, FEC). Fluorescence intensity for each test compound was converted to the appropriate FEC.

A further data set can be described thus: Absorbance spectra. The format is physicochemical. As to conditions: for Absorption max (nm) / Absorbance counter-screen: 25 mM sodium phosphate, pH 7.0; for Absorbance counter-screen: 300-750 nm; for Molar absorptivity: at absorption max. The gist of the method:
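Spectra from 300 to 750 nm were recorded at 100, 50 and 10 μM final compound in 25 mM sodium phosphate pH 7.0 with 2.0% DMSO, after 10 min at RT, read at 25 °C. Significant absorbance meant molar absorptivity above 2000 M^−1 cm^−1 at wavelengths above 300 nm.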

T1 sequence (P00811 20-377): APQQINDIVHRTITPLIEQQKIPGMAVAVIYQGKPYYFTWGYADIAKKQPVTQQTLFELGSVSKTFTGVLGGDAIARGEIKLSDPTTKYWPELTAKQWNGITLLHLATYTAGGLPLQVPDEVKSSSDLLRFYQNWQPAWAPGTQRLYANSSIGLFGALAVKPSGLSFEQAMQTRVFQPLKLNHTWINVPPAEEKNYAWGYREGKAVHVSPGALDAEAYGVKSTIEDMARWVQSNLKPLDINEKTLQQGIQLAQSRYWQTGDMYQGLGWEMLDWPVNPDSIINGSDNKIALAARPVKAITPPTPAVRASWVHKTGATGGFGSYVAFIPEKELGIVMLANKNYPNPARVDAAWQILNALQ

In the case of `COc1ccc(S(=O)(=O)ON=C2C=C(C)C(=O)C(C)=C2)cc1` [Compound 5, L002], the “UPLC-MS buffer stability counter-screen” value in data set [1] is “Gross degradation observed; loss of parent peak”. The Quenching counter-screen entry in data set [2] is listed as “Negative”. The AmpC aggregation counter-screen entry on AmpC β-lactamase is on record as “Detergent-insensitive”. Moreover, in data set [3], the Fluorescence counter-screen entry is “Negative”. Also, in “Absorbance spectra”, the “Absorption max (nm)” value was found to be 290 nm and the Absorbance counter-screen result was “Negative”.
Consider `C=C1C(=O)O[C@H](CCC)[C@H]1C(=O)O` [Compound 6, MB-3], for which, in data set [1], the “UPLC-MS buffer stability counter-screen” value is given as “Grossly stable”. Also, the Quenching counter-screen result in data set [2] is recorded as “Flagged (Significant fluorescence quenching was defined as signal reduction greater than 25% of the corresponding fluorophore signal at any test compound concentration)”. The AmpC aggregation counter-screen entry on AmpC β-lactamase is “Detergent-insensitive”. In addition, the Fluorescence counter-screen entry in data set [3] was “Negative”. Besides, in the data set “Absorbance spectra”, the “Absorption max (nm)” value is on record as “Nominal” and the Absorbance counter-screen result is given as “Negative”.
Take `Clc1ccc(-c2csc(NN=C3CCCC3)n2)cc1` [Compound 7, CPTH2]: the “UPLC-MS buffer stability counter-screen” value in data set [1] was “Gross degradation observed; loss of parent peak, appearance of new peaks”. Besides, the Quenching counter-screen entry in data set [2] is “Flagged (Significant fluorescence quenching was defined as signal reduction greater than 25% of the corresponding fluorophore signal at any test compound concentration)”. Moreover, the “AmpC counter-screen result” value on AmpC β-lactamase (detergent-sensitive modulation) is on record as “likely aggregators”. The AmpC aggregation counter-screen result at AmpC β-lactamase is on record as “Detergent-sensitive (Aggregators were defined as compounds with significant detergent-dependent changes in AmpC activity (t-test, adjusted P-value <0.05; mean differences greater than 30%))”. For the same compound, the Fluorescence counter-screen entry in data set [3] was “Negative”. In “Absorbance spectra”, the “Absorption max (nm)” value was found to be 285 nm and the Absorbance counter-screen entry is “Negative”.
`CCCCCCCCCCCC1=C(O)C(=O)C=C(O)C1=O` [Compound 9, Embelin]: the “UPLC-MS buffer stability counter-screen” value in data set [1] is listed as “Grossly stable”. Also, the Quenching counter-screen entry in data set [2] is “Flagged (Significant fluorescence quenching was defined as signal reduction greater than 25% of the corresponding fluorophore signal at any test compound concentration)”. Also, the AmpC aggregation counter-screen result on AmpC β-lactamase is listed as “Detergent-sensitive (Aggregators were defined as compounds with significant detergent-dependent changes in AmpC activity (t-test, adjusted P-value <0.05; mean differences greater than 30%))”. The Fluorescence counter-screen entry in data set [3] is given as “Negative”. Moreover, in “Absorbance spectra”, the “Absorption max (nm)” value is reported as 315 nm, the Absorbance counter-screen result is on record as “Flagged (Significant absorbance was defined as molar absorptivity constants greater than 2000 M^−1 cm^−1 at wavelengths greater than 300 nm)” and the “Molar absorptivity” value came to 21000 M⁻¹ cm⁻¹.
Turning to `O=C(O[C@@H]1Cc2c(O)cc(O)cc2O[C@@H]1c1cc(O)c(O)c(O)c1)c1cc(O)c(O)c(O)c1` [Compound 10, (-)-Epigallocatechin gallate], the “UPLC-MS buffer stability counter-screen” value in data set [1] is recorded as “Gross degradation observed; loss of parent peak, appearance of new peaks”. For the same compound, the Quenching counter-screen result in data set [2] is on record as “Flagged (Significant fluorescence quenching was defined as signal reduction greater than 25% of the corresponding fluorophore signal at any test compound concentration)”. The AmpC aggregation counter-screen result on AmpC β-lactamase is listed as “Detergent-insensitive”. Moreover, the Fluorescence counter-screen result in data set [3] is “Negative”. Further, in “Absorbance spectra”, the “Absorption max (nm)” value worked out at 290 nm and the Absorbance counter-screen entry was “Negative”.
On to `COc1cc(/C=C/C(=O)CC(=O)/C=C/c2ccc(O)c(OC)c2)ccc1O` [Compound 11, Curcumin], for which, in data set [1], the “UPLC-MS buffer stability counter-screen” value is recorded as “Gross degradation observed; loss of parent peak, appearance of new peaks”. The Quenching counter-screen entry in data set [2] is given as “Flagged (Significant fluorescence quenching was defined as signal reduction greater than 25% of the corresponding fluorophore signal at any test compound concentration)”. Moreover, the AmpC aggregation counter-screen result at AmpC β-lactamase is given as “Detergent-sensitive (Aggregators were defined as compounds with significant detergent-dependent changes in AmpC activity (t-test, adjusted P-value <0.05; mean differences greater than 30%))”. Besides, the Fluorescence counter-screen result in data set [3] is “Negative”. Besides, in “Absorbance spectra”, the “Absorption max (nm)” value is 425 nm, the Absorbance counter-screen result was “Flagged (Significant absorbance was defined as molar absorptivity constants greater than 2000 M^−1 cm^−1 at wavelengths greater than 300 nm)” and the “Molar absorptivity” value worked out at 20000 M⁻¹ cm⁻¹.
With `O=C1/C(=C/c2ccc(O)c(Br)c2)CCC/C1=C\c1ccc(O)c(Br)c1` [Compound 12, HAT inhibitor II], the “UPLC-MS buffer stability counter-screen” value in data set [1] is “Gross degradation observed; loss of parent peak”. Further, in data set [2], the Quenching counter-screen result is recorded as “Flagged (Significant fluorescence quenching was defined as signal reduction greater than 25% of the corresponding fluorophore signal at any test compound concentration)”. In addition, the AmpC aggregation counter-screen entry on AmpC β-lactamase was “Detergent-sensitive (Aggregators were defined as compounds with significant detergent-dependent changes in AmpC activity (t-test, adjusted P-value <0.05; mean differences greater than 30%))”. The Fluorescence counter-screen entry in data set [3] is reported as “Negative”. In the data set “Absorbance spectra”, the “Absorption max (nm)” value is listed as 355 nm, the Absorbance counter-screen entry was “Flagged (Significant absorbance was defined as molar absorptivity constants greater than 2000 M^−1 cm^−1 at wavelengths greater than 300 nm)” and the “Molar absorptivity” value was found to be 5100 M⁻¹ cm⁻¹.
With `COc1ccc(/C(Cl)=C(/C=O)c2ccc(OC)cc2)cc1` [Compound 18, Windorphen], in data set [1], the “UPLC-MS buffer stability counter-screen” value is listed as “Grossly stable”. In data set [2], the Quenching counter-screen entry is listed as “Flagged (Significant fluorescence quenching was defined as signal reduction greater than 25% of the corresponding fluorophore signal at any test compound concentration)”. For the same compound, the AmpC aggregation counter-screen result on AmpC β-lactamase is reported as “Detergent-insensitive”. For the same compound, the Fluorescence counter-screen entry in data set [3] was “Negative”. Besides, in the data set “Absorbance spectra”, the “Absorption max (nm)” value amounted to 345 nm, the Absorbance counter-screen result is “Flagged (Significant absorbance was defined as molar absorptivity constants greater than 2000 M^−1 cm^−1 at wavelengths greater than 300 nm)” and the “Molar absorptivity” value is 4300 M⁻¹ cm⁻¹.
For the compound `CCCC1(c2ccccc2)NC(=O)N(CC(=O)N(C)Cc2c(F)cccc2Cl)C1=O` (stereo not drawn) [Compound 21, N-[(2-chloro-6-fluorophenyl)methyl]-2-(2,5-dioxo-4-phenyl-4-propylimidazolidin-1-yl)-N-methylacetamide], the “UPLC-MS buffer stability counter-screen” value in data set [1] is given as “Grossly stable”. Moreover, in data set [2], the Quenching counter-screen entry is given as “Flagged (Significant fluorescence quenching was defined as signal reduction greater than 25% of the corresponding fluorophore signal at any test compound concentration)”. Besides, the AmpC aggregation counter-screen entry at AmpC β-lactamase is “Detergent-insensitive”. For the same compound, in data set [3], the Fluorescence counter-screen entry is on record as “Negative”. Besides, in “Absorbance spectra”, the “Absorption max (nm)” value was “Nominal” and the Absorbance counter-screen result is listed as “Negative”.
As for Plumbagin [Compound 8], the “UPLC-MS buffer stability counter-screen” value in data set [1] was “Grossly stable”. The Quenching counter-screen entry in data set [2] is listed as “Negative”. For the same compound, on AmpC β-lactamase, the AmpC aggregation counter-screen result is listed as “Detergent-insensitive”. In data set [3], the Fluorescence counter-screen entry was “Negative”. In addition, in the data set “Absorbance spectra”, the “Absorption max (nm)” value stood at 420 nm, the Absorbance counter-screen entry is “Flagged (Significant absorbance was defined as molar absorptivity constants greater than 2000 M^−1 cm^−1 at wavelengths greater than 300 nm)” and the “Molar absorptivity” value worked out at 3200 M⁻¹ cm⁻¹.
